“And” between values parts separate entries of the source, which are not always exact repeats. Equal entries are not always repeated. Inconclusive results and toxic doses are left out. Cut-off read from the data, not from the text of the source: active = T/C of 150% or more; inactive = T/C below 125%.
System: L1210 leukemia ip in BDF1 mice, survival T/C
Experiment: NCI In Vivo Anticancer Drug Screen. Data for tumor model L1210 Leukemia (intraperitoneal) in B6D2F1 (BDF1) mice
Conditions: endpoint: mean survival time, higher = longer survival
Summary of the method: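 Value reflects the ratio of survival in compound-treated mice to survival in vehicle-treated controls, with both groups carrying the same transplanted tumor.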

[1] = dose: 100.0 mg/kg/injection, schedule: Q01DX009 (ip), vehicle: Klucel (hydroxypropylcellulose) (HPC)
[2] = dose: 100.0 mg/kg/injection, schedule: Q04DX003 (ip), vehicle: Klucel (hydroxypropylcellulose) (HPC)
[3] = dose: 200.0 mg/kg/injection, schedule: Q01DX009 (ip), vehicle: Klucel (hydroxypropylcellulose) (HPC)
[4] = dose: 200.0 mg/kg/injection, schedule: Q04DX003 (ip), vehicle: Klucel (hydroxypropylcellulose) (HPC)
[5] = dose: 400.0 mg/kg/injection, schedule: Q01DX009 (ip), vehicle: Klucel (hydroxypropylcellulose) (HPC)
[6] = dose: 400.0 mg/kg/injection, schedule: Q04DX003 (ip), vehicle: Klucel (hydroxypropylcellulose) (HPC)
[7] = dose: 100.0 mg/kg/injection, schedule: Q04DX003 (ip), vehicle: saline with Tween-80
[8] = dose: 200.0 mg/kg/injection, schedule: Q04DX003 (ip), vehicle: saline with Tween-80
[9] = dose: 400.0 mg/kg/injection, schedule: Q04DX003 (ip), vehicle: saline with Tween-80
[10] = dose: 50.0 mg/kg/injection, schedule: Q01DX009 (ip), vehicle: Klucel (hydroxypropylcellulose) (HPC)

Measured: T/C

CCCN(CCC#N)CN1C(=O)c2ccccc2C1=O
inactive: dose: 100.0 mg/kg/injection, schedule: Q01DX001 (ip), vehicle: carboxymethylcellulose (CMC) 110 % of control | dose: 100.0 mg/kg/injection, schedule: Q01DX009 (ip), vehicle: carboxymethylcellulose (CMC) 90 % of control | dose: 100.0 mg/kg/injection, schedule: Q04DX002 (ip), vehicle: carboxymethylcellulose (CMC) 98 % of control and 100 % of control | dose: 100.0 mg/kg/injection, schedule: Q04DX003 (ip), vehicle: carboxymethylcellulose (CMC) 95 % of control | dose: 200.0 mg/kg/injection, schedule: Q01DX001 (ip), vehicle: carboxymethylcellulose (CMC) 113 % of control | dose: 200.0 mg/kg/injection, schedule: Q01DX009 (ip), vehicle: carboxymethylcellulose (CMC) 93 % of control | dose: 200.0 mg/kg/injection, schedule: Q04DX002 (ip), vehicle: carboxymethylcellulose (CMC) 94 % of control and 102 % of control | dose: 200.0 mg/kg/injection, schedule: Q04DX003 (ip), vehicle: carboxymethylcellulose (CMC) 101 % of control | dose: 400.0 mg/kg/injection, schedule: Q01DX001 (ip), vehicle: carboxymethylcellulose (CMC) 97 % of control | dose: 400.0 mg/kg/injection, schedule: Q01DX009 (ip), vehicle: carboxymethylcellulose (CMC) 100 % of control | dose: 400.0 mg/kg/injection, schedule: Q04DX002 (ip), vehicle: carboxymethylcellulose (CMC) 94 % of control and 97 % of control | dose: 400.0 mg/kg/injection, schedule: Q04DX003 (ip), vehicle: carboxymethylcellulose (CMC) 107 % of control

NC(=O)C(Cc1ccc(O)cc1)NC(=O)c1ccccc1 (centres undefined)
inactive: [1] 95 % of control | [2] 105 % of control | [3] 90 % of control | [4] 102 % of control | [5] 93 % of control | [6] 94 % of control

CC(=O)NCCNC(C)=O
inactive: dose: 50.0 mg/kg/injection, schedule: Q01DX001 (ip), vehicle: saline 102 % of control | dose: 100.0 mg/kg/injection, schedule: Q01DX001 (ip), vehicle: saline 108 % of control | dose: 200.0 mg/kg/injection, schedule: Q01DX001 (ip), vehicle: saline 117 % of control | dose: 400.0 mg/kg/injection, schedule: Q01DX001 (ip), vehicle: saline 96 % of control

OC1CC2CCC1CC2 (centres undefined)
inactive: dose: 100.0 mg/kg/injection, schedule: Q01DX009 (ip), vehicle: saline with Tween-80 100 % of control | [7] 89 % of control | dose: 200.0 mg/kg/injection, schedule: Q01DX009 (ip), vehicle: saline with Tween-80 97 % of control | [8] 96 % of control | dose: 400.0 mg/kg/injection, schedule: Q01DX009 (ip), vehicle: saline with Tween-80 102 % of control | [9] 86 % of control

CCCCCCCCOc1ccc(C=Nc2ccc(C)cc2)cc1
inactive: [1] 98 % of control | [3] 104 % of control | [5] 92 % of control

Cc1ccc(C(=O)/C=C/N2CCN(c3ccccc3)CC2)c(C)c1
inactive: [7] 100 % of control | [8] 105 % of control | [9] 98 % of control

Cc1c(-c2ccccc2)nn(O)c1-c1ccccc1
inactive: [10] 102 % of control | [1] 102 % of control | [3] 94 % of control

O=C1CCCCCC1c1ccccc1 (centres undefined)
inactive: [7] 98 % of control | [8] 96 % of control | [9] 106 % of control

CC(C)NNC(=O)c1ccccc1N
inactive: dose: 25.0 mg/kg/injection, schedule: Q01DX009 (ip), vehicle: Klucel (hydroxypropylcellulose) (HPC) 103 % of control | dose: 25.0 mg/kg/injection, schedule: Q04DX003 (ip), vehicle: Klucel (hydroxypropylcellulose) (HPC) 96 % of control | [10] 98 % of control | dose: 50.0 mg/kg/injection, schedule: Q04DX003 (ip), vehicle: Klucel (hydroxypropylcellulose) (HPC) 89 % of control | [1] 93 % of control | [2] 91 % of control | [3] 92 % of control | [4] 100 % of control | [6] 94 % of control
